Reference: a melting point compilation (Tetko et al.; mined from patent text by program, amines drawn as free bases though some values may be those of a salt)

Structure (SMILES) | melting point [°C]
C=Cc1c(N)cc(Cl)nc1C(=O)OC | 53 to 54
O=C1c2ccccc2CCC1C(=O)C(F)(F)F (configuration not stated) | 48 to 49
CCOC(=O)C1=C(C)NC(=O)N(C(=O)OC(C)C)C1c1cccc([N+](=O)[O-])c1 (configuration not stated) | 128 to 129
CS(=O)(=O)c1ccc(C(=O)NCc2ccc3c(c2)C(=O)N(C2CCC(=O)NC2=O)C3=O)nc1 (configuration not stated) | 276 to 278
C#Cc1cccc(Nc2ncnc3[nH]cc(-c4cccs4)c23)c1 | 230 to 232
CCOC(=O)C(C)(C#N)c1ccc2c(c1)Cc1cccnc1O2 (configuration not stated) | 119 to 120
COc1ccc2c(c1OC)CCC1=C2CCC(=O)N1 | 231
O=C(O)CCNc1ccc(C(=O)c2ccccc2)cc1[N+](=O)[O-] | 170 to 175
COCC(=O)NNC(=O)c1cc2cccc(N(C)S(=O)(=O)c3cccs3)c2[nH]1 | 148 to 149
c1ccc2c(c1)ncc1nc(-c3nnn[nH]3)cn12 | 320 to 322
CCCCCCCCCCc1ccc2c(c1)-n1c(C)nnc1C(C)N=C2c1ccccc1 (configuration not stated) | 111 to 112
CCCc1cc(C(=O)O)ccc1OCCCCCCc1cccc(O)c1O | 123 to 124
FCc1cccc(C#CCCc2cnc3cc(F)c(F)cc3n2)n1 | 135 to 138
CCC12CCC3C4=C(CC(OC)=CC4)C(C)CC3C1CCC2=O (configuration not stated) | 118 to 125
O=S1(=O)c2cccc3cccc(c23)N1CCCN1CC=C(c2c[nH]c3ccc(F)cc23)CC1 | 224
O=C(O)CN1C(=O)c2cccc3c(C(=O)c4ccccc4)ccc(c23)C1=O | 310 to 312
C/C(=C(\C#N)C(N)=S)N1CCC(C)CC1 | 156 to 159
Cc1cc(C2CCCC2)c(O)c(C2CCCC2)c1 | 78
CCOc1nn(-c2ccc(C(F)(F)F)cn2)cc1CCOc1cc(CCC(=O)O)n(-c2ccccc2)n1 | 155 to 156
CN1CC2=C(n3cnc(C#CC(C)(C)O)c3C1)S(=O)C=C2 (configuration not stated) | 180 to 181
CS(=O)(=O)OC(c1cccc(C(OS(C)(=O)=O)(C(F)(F)F)C(F)(F)F)c1)(C(F)(F)F)C(F)(F)F | 125
c1cc(CC2CCNC3CCCN23)ccc1CC1CCNC2CCCN12 (configuration not stated) | 110
CCOC(=O)c1cn(Cc2ccccc2)c2cc(C3CC3)nn2c1=O | 160 to 165

Structure (SMILES) | melting point [°C]
CC(C)(C)OC(=O)CN1C(=O)C(=O)c2ccccc21 | 119 to 121
O=C1NC(CO)(CO)CO1 | 107 to 108
CCOC(=O)CN1C(=O)SC(Cc2ccc(N3CCC(NCC(O)c4ccc(O)c(NS(C)(=O)=O)c4)CC3)cc2)C1=O (configuration not stated) | 153 to 155
O=C(NCC1(O)CCCCCC1)c1cc(-c2ccccc2C(=O)O)ccc1Cl | 113 to 116
CN(C)C=C(C#N)C(=O)NCc1ccccc1Cl | 144 to 146
CCCCCCCCC=CCCCCCCCC(=O)OCCCCCCCCCC | 70
O=C(COc1ccccc1Cl)NCCO[N+](=O)[O-] | 57 to 58
O=C1C=C(c2cccc(C(F)(F)F)c2)CO1 | 124 to 125
CCN(CC)CCNC(=S)NC(=O)c1ccccc1 | 54 to 56
O=c1[nH]nc2n1C=Cc1ccccc1C2c1ccccc1 (configuration not stated) | 258 to 260
CC1CCN(C2=NCC(=O)N(C)c3ccccc32)CC1 | 106 to 108
CCOC=C(C=C(C#N)C#N)CCc1ccc(C(=O)OC)cc1 | 136 to 137
O=C(O)c1ccn2c1C(c1cccnc1)CC2 (configuration not stated) | 210
CC1=C(C(=O)OCCN(C)c2ccccc2)C(c2ccccc2C(F)(F)F)c2c(ccnc2OC(C)C)N1 (configuration not stated) | 114 to 116
CC1Oc2ccc(C(F)(F)F)cc2NC1=O (configuration not stated) | 142 to 144
CCCCCCCCCCCCN1C(=O)C=CC1=O | 56
Nc1nc(/C(=N/OCC(=O)OC(c2ccccc2)c2ccccc2)C(=O)O)cs1 | 125
CSCCOC(=O)N(C)c1nnc(-c2cccnc2)s1 | 126 to 128
CCOC(=O)C(Cl)=Cc1cc(-n2ncc(C(F)(F)F)cc2=O)c(F)cc1Cl | 139 to 140
O=C1c2ccccc2C(O)C1Cc1ncc(C(F)(F)F)cc1Cl (configuration not stated) | 174 to 178
Cc1cc(C(=O)CS(C)(=O)=O)cc(C)c1N | 179 to 180
CN1CCCCC(C2=CC(=O)CCC2)C1=O (configuration not stated) | 109 to 110
C=CCNCCC(=O)O | 194 to 195

Structure (SMILES) | melting point [°C]
COc1cc(C(=O)CS(C)(=O)=O)cc(OC)c1N(C)C | 111 to 112
CN1CCN(c2ccc(S(=O)(=O)c3cccc(F)c3)c(N)c2)CC1 | 89 to 92
CC(=O)NCc1ccc(CO)cc1[N+](=O)[O-] | 133 to 135
NC1=NC(c2ccccc2)=NCC1(N)N=O (configuration not stated) | 243 to 244
NC(N)=NC(=O)Cn1cccc1 | 214
CC1CC(O)CC2=CCC3C4CCC(=O)C4(C)CCC3C21C (configuration not stated) | 167 to 169
C[C@@H](O)[C@H]1C(=O)N([Si](C)(C)C(C)(C)C)[C@@H]1[C@@H]1COC(C)(C)O1 | 80 to 90
CS(=O)(=O)Oc1ccc2c(c1)C1(CCCC1)CO2 | 75 to 77
Cn1c(=O)n(C)c2cc(C(=O)CSCCC(=O)O)c(Cl)cc21 | 148 to 150
O=C(NCCCn1cc(Cn2ccnc2)c2ccccc21)Nc1ccccc1 | 177 to 178
COc1ccccc1S(=O)(=O)OCC(=O)c1ccccc1 | 88
N#CC(c1ccc(C(F)(F)F)cc1)N1CCOCC1 (configuration not stated) | 89 to 90
CN(C(=O)COc1nc(C(Cl)(Cl)Cl)ns1)C1=CCCCC1 | 78
CC(c1ccccc1)N1C(=O)NCc2c(-c3ccccc3)cccc21 (configuration not stated) | 136 to 138
N#Cc1cc(F)c(F)cc1[N+](=O)[O-] | 75
Cc1cc(O)c(S(=O)C(C)(C)C)c(=O)o1 (configuration not stated) | 119
CN1CCN(c2ccc(NC(=O)n3ccc4cc(Oc5cc(CC(N)=O)ncn5)ccc43)cc2C(F)(F)F)CC1 | 238 to 240
N#CCCN1CCC(C2c3ccccc3C=Cc3ccccc32)CC1 | 165 to 168
CSc1nccc(C)c1NC(=O)CCCCCCCCSc1nc2ccccc2o1 | 91 to 92
CCOC(=O)Nc1cc(N(C(=O)OCC)S(=O)(=O)CC)c(Br)cc1F | 142 to 143
Cc1cc([N+](=O)[O-])c(Cl)c([N+](=O)[O-])c1S(=O)(=O)Cl | 105 to 107
O=C(O)c1cccc(-c2coc3c(O)c(O)ccc3c2=O)c1 | 313 to 314
CN(C)C1CCCCCCCCCCC1N(C)C(=O)c1ccc(C(F)(F)F)cc1 (configuration not stated) | 69 to 70

Second part, the compound after the results:

melting point [°C] | Structure (SMILES)
> 260 | O=C(NCc1ccc(Cl)cc1)c1cn2c3c(cc(CN4CCOCC4)cc3c1=O)OC(c1ccc(O)cc1)C2 (configuration not stated)
215 to 216 | COc1ccc(-c2c(Cl)c(CN3C(=O)CCC3=O)nc3sc4c(F)c(OC)ccc4c23)cc1
187 to 189 | COc1cc(Nc2c(C#N)cnc3cc(-c4ccc(CN(C)C)cc4)ccc23)c(Cl)cc1Cl
107 to 109 | CCCCc1cc2ccccc2c(Oc2ccc(/C=C/C(=O)O)cc2)c1-c1ccc(O)cc1
186 to 187 | COCCNC(=O)c1cccc(-c2cccc3cc(COc4cc(C(F)(F)F)ccn4)sc23)c1
251 | O=S(=O)(CC1CC1)c1nc(-c2ccc(F)cc2)c(-c2ccc(F)cc2)[nH]1
152 | NC1=NC(c2ccccc2)(c2cccc(Cc3ccc(F)cc3)c2)C2=NCCCN12 (configuration not stated)
104 to 106 | CCOC(=O)c1ccc(NCCc2cccc3ccccc23)cc1
245 to 251 | COc1cc(/C=C/C(=O)Nc2ccccc2C(=O)O)ccc1OCc1cccnc1
219 to 221 | NS(=O)(=O)c1ccc(NN=Cc2ccc(Cl)cc2Cl)cc1
204 to 205 | COc1ccc(-c2cc(=O)c3c(O)cc(OCC4=COC(C)(C)O4)cc3o2)cc1OC(=O)C(C)(C)C
92 to 95 | COc1ccc2cc([C@H](C)C(=O)OCC(=O)COC(=O)Cc3ccc(CO[N+](=O)[O-])cc3)ccc2c1
163 to 165 | Cc1ccc(-c2cccc(/C=C/C(=O)Nc3ccc(CN(C)CC#N)cc3)c2)cc1
146 to 147 | COc1cc2nc(C)nc(N3CCN(C(=O)Nc4ccc(Oc5ccccc5)cc4)CC3)c2cc1OC
157 to 159 | Cc1cc(S(=O)(=O)c2ccc(N)cc2)cc(N(C)C)n1
111 to 113 | CCOc1cc([C@@H](CC(=O)N(C)C)N2Cc3cccc(NCC(C)(C)C)c3C2=O)ccc1OC
348 to 350 | N#Cc1cccc(-c2ccc(O)c(-c3nc4cc(C#N)ccc4[nH]3)c2)c1

melting point [°C] | Structure (SMILES)
153 to 154 | COc1ccc(Br)cc1-c1cc(-c2ccc(Br)cc2)no1
151 to 152 | COc1ccc(CC(=O)Nc2cc(Cl)ccc2O)cc1OC1CCCC1
132 | COc1cccc2nc(-c3ccc(C)cc3)cc(OCC(=O)N3CCOCC3)c12
108 to 110 | O=C(CCCCCS(=O)c1ccc(-c2ccc(Cl)cc2)cc1)NO (configuration not stated)
165 | Cc1ccc(CCCO)c(NCc2ccc3nc(NCCCN4CCOCC4)n(Cc4cccc5cccnc45)c3c2)c1
181 to 183 | N#Cc1ccc2c(c1)OCC21C(=O)N(Cc2ccc3c(c2)OCCO3)c2ccccc21 (configuration not stated)
199 to 200 | CCn1c(C(c2ccccc2)c2ccccc2)nc(-c2ccncc2)c1-c1ccc(Cl)cc1
95 to 99 | Cc1cc(OC2SCC(O)C(O)C2O)c(-c2ccnn2-c2ccccc2)cc1Cl (configuration not stated)
144 to 146 | COc1ccc2c(NC(C)=O)c(C(=O)c3ccccc3)[nH]c2c1
102 to 104 | CC(C)OC(=O)c1ccc2c(c1)ncn2-c1cccc(Br)c1
245 to 252 | COc1cc2ncnc(N3CCc4cc5[nH]ccc5cc43)c2cc1OC
110 to 112 | CCC(=O)NCCc1c[nH]c2ccc(OCc3ccccc3)cc12
86 | CCOC(=O)C(C)Oc1ccc(N(C)c2cc3ccc(Cl)cc3c(Cl)n2)cc1 (configuration not stated)
84.5 to 87 | COC(=O)C(Oc1ccc(F)cc1)c1ccc(Sc2ccc(Cl)cc2)cc1 (configuration not stated)
245 to 247 | COc1ccc(Cl)cc1C1(O)C(=O)Nc2ccc(Br)cc21 (configuration not stated)
84 to 85 | Cc1cccc(-n2nc(C)cc2-c2ccnc(N(C)C)c2)c1
